# Measured values reported in US8173689B2 (Novartis AG, priority 2006, dated 2012).
# Like-named read-outs stand apart in the source and are kept apart here.
# How the values were obtained:
# [1] = biological target: T1, cytoplasmic domain of the human CSF-1R (Homo sapiens, UniProt P07333); assay: In vitro kinase assay for colony stimulating factor-1 receptor (AlphaScreen); type: biochemical; conditions: tested at about 1 μM; for inhibition at 1 µM: read-out: CSF-1R percent inhibition
# T1 construct: Recombinant protein corresponding to the cytoplasmic domain of the human CSF-1R; purchased Invitrogen Corporation, Carlsbad, Calif; PV3249
# T1 sequence (P07333 539-972 limits assumed): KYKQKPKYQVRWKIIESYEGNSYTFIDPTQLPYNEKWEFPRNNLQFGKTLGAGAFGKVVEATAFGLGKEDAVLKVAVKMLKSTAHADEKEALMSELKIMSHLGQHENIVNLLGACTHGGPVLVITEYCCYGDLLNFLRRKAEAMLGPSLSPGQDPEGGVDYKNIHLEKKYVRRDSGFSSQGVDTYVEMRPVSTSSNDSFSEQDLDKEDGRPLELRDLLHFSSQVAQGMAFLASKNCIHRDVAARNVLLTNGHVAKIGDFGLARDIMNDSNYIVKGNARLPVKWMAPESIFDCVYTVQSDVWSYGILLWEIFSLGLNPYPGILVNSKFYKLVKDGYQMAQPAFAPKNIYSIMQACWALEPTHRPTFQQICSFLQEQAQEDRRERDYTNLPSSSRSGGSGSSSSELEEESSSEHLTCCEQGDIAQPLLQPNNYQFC
# Summary of the method: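 4 nM enzyme, 1 μM ATP; buffer 50 mM Hepes pH 7.5, 5 mM MgCl2, 10 mM MnCl2, 1.0 mM DTT, 0.1% BSA, 0.01% Tween 80. Readout: AlphaScreen, PT66 acceptor/streptavidin donor, overnight.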
# kinase domain of PDGFRβ = biological target: T2, kinase domain of PDGFRβ (Homo sapiens, UniProt P09619); assay: Inhibition of PDGFRb kinase signaling in an in vitro biochemical assay (alphascreen); conditions: tested at about 1 μM; for inhibition at 1 µM: read-out: PDGFRβ percent inhibition
# T2 construct: The kinase domain of PDGFRβ was assayed in 50 mM Hepes; purchased Invitrogen P3082
# [2] = system: MNFS60 (murine AML cells); assay: Cell viability assay in MCSF dependent MNFS60 cells (Cell Titer Glo); type: cell-based; conditions: Mus musculus, tested at about 1 μM; MNFS60 cells; read-out: M-NFS-60 CP percent inhibition
# Experimental: Cell viability was assessed by Cell Titer Glo, Promega. […] Test compounds were serially diluted (3 fold) in DMSO to 500× the final concentration. […] Final concentration of MCSF is 10 ng/ml. Cells were incubated for 72 hrs at 37° C., 5% CO2. After the incubation 100 μl Cell Titer Glo is added to each well to determine viable cells. The assay was performed according to the manufacturer's instruction (Promega Corporation, Madison, Wis. USA). Each experimental condition was performed in triplicate. Raw data was imported in Abase and EC50s calculated with XL-fit data analysis software.
# kinase domain of cKIT = biological target: T3, kinase domain of cKIT (Homo sapiens, UniProt P10721); assay: Inhibition of cKIT kinase signaling in an in vitro biochemical assay (alphascreen); conditions: tested at about 1 μM; for inhibition at 1 µM: read-out: cKit percent inhibition
# T3 construct: The kinase domain of cKIT was assayed in 50 mM Hepes; purchased Upstate 14-559
# T3 sequence (P10721 589-937 limits assumed): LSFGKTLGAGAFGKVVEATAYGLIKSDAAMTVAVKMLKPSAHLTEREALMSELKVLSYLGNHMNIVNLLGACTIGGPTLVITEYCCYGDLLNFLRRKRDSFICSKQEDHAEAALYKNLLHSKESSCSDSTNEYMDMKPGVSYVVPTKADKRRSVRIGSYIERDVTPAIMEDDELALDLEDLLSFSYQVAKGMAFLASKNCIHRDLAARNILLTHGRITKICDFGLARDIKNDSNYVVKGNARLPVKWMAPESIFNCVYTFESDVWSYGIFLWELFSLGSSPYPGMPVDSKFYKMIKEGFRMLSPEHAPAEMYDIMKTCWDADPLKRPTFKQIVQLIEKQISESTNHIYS
# T2 sequence (P09619 600-962 limits assumed): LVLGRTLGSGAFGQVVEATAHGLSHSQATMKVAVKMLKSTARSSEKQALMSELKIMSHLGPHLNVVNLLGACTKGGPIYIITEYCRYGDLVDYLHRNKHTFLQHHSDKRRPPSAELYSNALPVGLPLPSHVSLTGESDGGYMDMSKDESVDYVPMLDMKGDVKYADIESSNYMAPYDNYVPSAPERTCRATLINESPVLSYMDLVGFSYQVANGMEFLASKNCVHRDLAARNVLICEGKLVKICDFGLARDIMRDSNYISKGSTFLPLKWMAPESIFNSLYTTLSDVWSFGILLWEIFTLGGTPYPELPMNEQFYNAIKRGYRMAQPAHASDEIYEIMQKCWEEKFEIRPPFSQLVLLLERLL
inhibition at 1 µM [1] [%],inhibition at 1 µM (kinase domain of PDGFRβ) [%],inhibition at 1 µM (kinase domain of cKIT) [%],Molecule,also measured
99,96,–,"CNC(=O)c1cc(Oc2ccc3nc(Nc4ccccc4OC)oc3c2)ccn1 [Compound 11, 4-[2-(2-Methoxy-phenylamino)-benzooxazol-6-yloxy]-pyridin-2-carboxylic acid methylamide]",inhibition at 1 µM [2]: 26%
100,2,–,"CC[C@@H](Nc1nc2ccc(Oc3ccnc(C(=O)NC)c3)cc2o1)c1ccccc1 [Compound 19, 4-[2-((R)-1-Phenyl-propyl-amino)-benzooxazol-6-yloxy]-pyridine-2-carboxylic acid methylamide]",inhibition at 1 µM [2]: 36%
99,51,–,"CC(=O)Nc1cc(Oc2ccc3nc(NC4CCCCC4)oc3c2)ccn1 [Compound 29, N-[4-(2-Cyclohexylamino-benzooxazol-6-yloxy)-pyridin-2-yl]-acetamide]",inhibition at 1 µM [2]: 0%
99,6,–,"CNC(=O)c1cc(Oc2ccc3nc(NCc4ccccn4)oc3c2)ccn1 [Compound 40, 4-{2-[(Pyridin-2-ylmethyl)-amino]-benzooxazol-6-yloxy}-pyridine-2-carboxylic acid methylamide]",inhibition at 1 µM [2]: 0%
19,5,7,"CNC(=O)c1cc(Oc2ccc3nc(N[C@@H](C(=O)NC)C4CCCCC4)oc3c2)ccn1 [Compound 62, 4-{2-[((R)-Cyclohexyl-methylcarbamoyl-methyl)-amino]-benzooxazol-6-yloxy}-pyridine-2-carboxylic acid methylamide]",–
25,2,15,"NCc1cc(Oc2ccc3nc(NCC4CCCCC4)oc3c2)ccn1 [Compound 111, [6-(2-Aminomethyl-pyridin-4-yloxy)-benzooxazol-2-yl]-cyclohexylmethyl-amine]",–
–,–,–,CCN1CCC[C@H]1CNC(=O)c1cc(Oc2ccc3nc(N[C@@H]4CCCC[C@H]4O)sc3c2)ccn1 [Compound 20],inhibition at 1 µM (kinase domain of cKIT; compounds of Table 3): 0%; inhibition at 1 µM ([1]; compounds of Table 3): 76%; inhibition at 1 µM (kinase domain of PDGFRβ; compounds of Table 3): 0%
–,–,–,"CNC(=O)c1cc(Oc2ccc3nc(NC4CCCC(N)C4)sc3c2)ccn1 (stereo not shown) [Example 294, 4-(2-(3-aminocyclohexylamino)benzo[d]thiazol-6-yloxy)-N-methylpicolinamide]",inhibition at 1 µM (kinase domain of cKIT; compounds of Table 3): 1%; inhibition at 1 µM ([1]; compounds of Table 3): 87%; inhibition at 1 µM (kinase domain of PDGFRβ; compounds of Table 3): 0%
74,12,24,"CNC(=O)c1cc(Oc2ccc3nc(N[C@@H]4CCN(C(C)=O)C4)sc3c2)ccn1 [Example 303, (R)-4-(2-(1-acetylpyrrolidin-3-ylamino)benzo[d]thiazol-6-yloxy)-N-methylpicolinamide]",–
–,–,–,"O[C@@H]1CCCC[C@H]1Nc1nc2ccc(Oc3ccnc(Cl)c3)cc2s1 [Example 225, (1R,2R)-2-(6-(2-chloropyridin-4-yloxy)benzo[d]thiazol-2-ylamino)cyclohexanol]",inhibition at 1 µM (kinase domain of cKIT; compounds of Table 3): 21%; inhibition at 1 µM ([1]; compounds of Table 3): 90%; inhibition at 1 µM (kinase domain of PDGFRβ; compounds of Table 3): 0%
–,–,–,4-(2-Cyclobutylamino- benzooxazol-6-yloxy)- pyridine-2-carboxylic acid methylamide [Compound 22],cKit percent inhibition (kinase domain of cKIT; compounds of Table 4): 89%; CSF-1R percent inhibition ([1]; compounds of Table 4): 100%; PDGFRβ percent inhibition (kinase domain of PDGFRβ; compounds of Table 4): 90%
93,88,22,"CNC(=O)c1cc(Oc2ccc3nc(N[C@H]4CCCC[C@H]4NC(=O)CC(C)C)sc3c2)ccn1 [Example 311, N-methyl-4-(2-((1S,2R)-2-(3-methylbutyanamido)cyclo-hexylamino)benzo[d]thiazol-6-yloxy)picolinamide]",–
99,9,10,"CNC(=O)c1cc(Oc2ccc3nc(NC(C)(C)C)oc3c2)ccn1 [Compound 100, 4-(2-tert-Butylamino-benzo-oxazol-6-yloxy)-pyridine-2-carboxylic acid methylamide]",–
–,–,–,CNC(=O)c1cc(Oc2ccc3nc(NCC(O)COC)sc3c2)ccn1 (stereo not shown) [Compound 127],inhibition at 1 µM (kinase domain of cKIT; compounds of Table 3): 0%; inhibition at 1 µM ([1]; compounds of Table 3): 95%; inhibition at 1 µM (kinase domain of PDGFRβ; compounds of Table 3): 0%
87,7,15,"CNC(=O)c1cc(Oc2ccc3nc(N[C@H]4CCN(C(C)=O)C4)sc3c2)ccn1 [Example 305, (S)-4-(2-(1-acetylpyrrolidin-3-ylamino)benzo[d]thiazol-6-yloxy)-N-methylpicolinamide]",–
67,0,8,"CNC(=O)c1cc(Oc2ccc3nc(NC4CCN(c5ccccc5)CC4)oc3c2)ccn1 [Compound 107, 4-[2-(1-Phenyl-piperidin-4-ylamino)-benzooxazol-6-yloxy]-pyridine-2-carboxylic acid methylamide]",–
96,–,–,"CNC(=O)c1cc(Oc2ccc3nc(Nc4ccccc4N4CCOCC4)oc3c2)ccn1 [Compound 3, 4-[2-(2-Morpholin-4-yl-phenylamino)-benzooxazol-6-yloxy]-pyridin-2-carboxylic acid methylamide]",inhibition at 1 µM [2]: 0%
97,0,21,"CNC(=O)c1cc(Oc2ccc3nc(NCc4cccnc4)oc3c2)ccn1 [Compound 59, 4-{2-[(Pyridin-3-ylmethyl)-amino]-benzooxazol-6-yloxy}-pyridine-2-carboxylic acid methylamide]",–
87,8,0,"CNC(=O)c1cc(Oc2ccc3nc(N[C@@H]4CCCC[C@H]4OCc4ccccc4)sc3c2)ccn1 [Compound 155, 4-[2-((1R,2R)-2-Benzyloxy-cyclohexylamino)-benzothiazol-6-yloxy]-pyridine-2-carboxylic acid methylamide]",–
99,–,–,"CNC(=O)c1cc(Oc2ccc3nc(Nc4ccc(Br)cc4)oc3c2)ccn1 [Compound 1, 4-[2-(4-Bromo-phenylamino)-benzooxazol-6-yloxy]-pyridine-2-carboxylic acid methylamide]",inhibition at 1 µM [2]: 21%
76,14,0,"CNC(=O)c1cc(Oc2ccc3nc(N[C@H]4CCCC[C@H]4NC(=O)c4ccccc4)sc3c2)ccn1 [Example 312, 4-(2-((1S,2R)-2-benzamidocyclohexylamino)benzo[d]thiazol-6-yloxy)-N-methylpicolinamide]",–
–,–,–,CNC(=O)c1cc(Oc2ccc3nc(NC[C@H](C)O)sc3c2)ccn1 [Compound 100],inhibition at 1 µM (kinase domain of cKIT; compounds of Table 3): 0%; inhibition at 1 µM ([1]; compounds of Table 3): 81%; inhibition at 1 µM (kinase domain of PDGFRβ; compounds of Table 3): 6%
100,100,100,"Cn1cc(-c2cc(Oc3ccc4nc(NC5CCCCCC5)sc4c3)ccn2)cn1 [Example 364, N-cycloheptyl-6-(2-(1-methyl-1H-pyrazol-4-yl)pyridin-4-yloxy)benzo[d]thiazol-2-amine]",–
–,–,–,"O[C@@H]1CCCC[C@H]1Nc1nc2ccc(Oc3ccnc(C4CC4)c3)cc2s1 [Cmpd 169, (1R,2R)-2-(6-(2-cyclopropylpyridin-4-yloxy)benzo[d]thiazol-2-ylamino)cyclohexanol]",inhibition at 1 µM (kinase domain of cKIT; compounds of Table 3): 12%; inhibition at 1 µM ([1]; compounds of Table 3): 75%; inhibition at 1 µM (kinase domain of PDGFRβ; compounds of Table 3): 0%
85,8,16,"CNC(=O)c1cc(Oc2ccc3nc(NC(=O)c4cccc5c4OCCO5)oc3c2)ccn1 [Compound 110, 4-{2-[(2,3-Dihydro-benzo-[1,4]dioxine-5-carbonyl)-amino]-benzooxazol-6-yloxy}-pyridine-2-carboxylic acid methylamide]",–
–,–,–,"N#Cc1cc(Oc2ccc3nc(N[C@@H]4CCCC[C@H]4O)sc3c2)ccn1 [Example 226, 4-(2-((1R,2R)-2-hydroxycyclohexylamino)benzo[d]thiazol-6-yloxy)picolinonitrile]",inhibition at 1 µM (kinase domain of cKIT; compounds of Table 3): 20%; inhibition at 1 µM ([1]; compounds of Table 3): 80%; inhibition at 1 µM (kinase domain of PDGFRβ; compounds of Table 3): 0%
–,–,–,CNC(=O)c1cc(Oc2ccc3nc(N[C@@H]4CCC(=O)NC4)sc3c2)ccn1 [Compound 86],inhibition at 1 µM (kinase domain of cKIT; compounds of Table 3): 15%; inhibition at 1 µM ([1]; compounds of Table 3): 63%; inhibition at 1 µM (kinase domain of PDGFRβ; compounds of Table 3): 32%
